# How the values were obtained:
# MMP-3 mRNA = test: RT-PCR of MMP-3 mRNA in chondrocytes; type: cell-based, human
# Procedure: (§1) Chondrocytes were isolated from the knee joint of patient undergoing a knee replacement due to osteoarthritis. Cartilage was digested with 0.2% protease Type XIV (Sigma) for 1 hour, followed by 3-hour incubation with 0.2% collagenase Type IA (Sigma) at 37° C. Following the incubation, the undigested cartilage fragments were removed using a 70 μm Nylon sieve. Chondrocytes were washed with DPBS and maintained in monolayer culture for 7 days in Dulbecco's modified Eagle's medium (DMEM; Life Technologies Inc.) which contained 10% fetal bovine serum (FBS; Life Technologies), 100 units/ml penicillin-streptomycin (Life Technologies) and 25 μg/ml L-ascorbic acid (Sigma). All experiments were performed with primary or first passage cells. The preparation of chondrocytes in alginate beads was carried out with 4×10^6 cells per 1 ml of alginate. Alginate cultures were maintained for 7 days at 37° C., 5% CO2 and 95% humidity and incubated with various concentrations of DHEA (0, 10, 50 or 100 μM) for a varing period of time. DHEA was purchased from Sigma and used after dissolving either in ethanol or dimethyl sulfoxide (DMSO). After a desired incubation period, cells were harvested by solubilizing the alginate beads in citrate buffer (55 mM sodium citrate, 0.15 M NaCl, pH 7.0) for 10 min at 37° C. and by centrifugation (300 g, 5 min).
# Total RNA from chondrocytes was extracted using RNeasy Mini Kit (QIAGEN). Reverse transcription from 1 μg of total RNA was conducted using First Strand cDNA Synthesis Kit (MBI Fermentas) according to manufacturer's recommendation with random hexamers. […] All reactions were determined to be in the linear range of amplification with the cycle number ranging from 14 to 30. The PCR products were analyzed by separation on a 2% agarose gel followed by ethidium bromide staining. Following electrophoresis, photographs were taken and analyzed using a densitometric program (TINA; Raytest Isotopenmeβgerate, Germany). […] After normalizing with respect to GAPDH, percentage increase or decrease was determined. […]
# MMP-1 = test: Western blot of MMP-1 in chondrocyte lysates; type: cell-based, human; details: 0, 10 or 100 μ DHEA, three days
# Procedure: as §1, with “After a desired incubation period, cells were harvested by solubilizing the alginate beads in citrate buffer (55 mM sodium citrate, 0.15 M NaCl, pH 7.0) for 10 min at 37° C. and by centrifugation (300 g, 5 min).” left out
# To investigate the effect of DHEA on the protein concentration, Western blot analysis was performed. […] Protein concentration of the supernatant was determined by Bio-Rad protein assay (Bio-Rad, USA) using bovine serum albumin (BSA) as a standard. […]
# [1] = system: (IL-1β)-induced MMP-3 mRNA; test: (IL-1β)-induced MMP-3 mRNA expression in chondrocytes, RT-PCR; type: cell-based, human; details: 100 μM DHEA with IL-1β, 72 hr
# Procedure: Sixteen hours prior to a treatment, the complete culture medium was replaced with a serum-free medium. Chondrocyte alginate bead cultures were then treated with IL-1β ([…], (Calbiochem) and DHEA (0, 10, 50 or 100 μM) for 3 days.
# Total RNA from chondrocytes was extracted using RNeasy Mini Kit (QIAGEN). Reverse transcription from 1 μg of total RNA was conducted using First Strand cDNA Synthesis Kit (MBI Fermentas) according to manufacturer's recommendation with random hexamers. The resulting cDNA was then amplified by polymerase chain reaction using AccuPower PCR Premix (Bioneer, Korea) in a final volume of 20 μl using three thermocycler temperatures (30 sec at […], 30 sec at 60° C., and 30 sec at […]). All reactions were determined to be in the linear range of amplification with the cycle number ranging from 14 to 30. The PCR products were analyzed by separation on a 2% agarose gel followed by ethidium bromide staining. Following electrophoresis, photographs were taken and analyzed using a densitometric program (TINA; Raytest Isotopenmeβgerate, Germany). Integrated density values for the genes in question were then normalized to the glyceraldehyde-3-phosphate dehydrogenase (GAPDH) values for a semiquantitative assessment. After normalizing with respect to GAPDH, percentage increase or decrease was determined. Each experiment was repeated at least three times. […]
# type II collagen mRNA = test: Osteoarthritic rabbit model (ACLT), intraarticular injection, RT-PCR of type II collagen; type: in vivo; details: rabbit ACLT knee, intraarticular once a week for 5 weeks
# Procedure: Mature New Zealand White rabbits underwent bilateral anterior cruciate ligament transection (ACLT). ACLT was performed using a medial arthrotomy method. Postoperatively the animals were permitted cage (60 cm×60 cm×40 cm) activity without immobilization. The right knees received via intraartiticular injection DHEA, DHEA-pyruvate or DHEA+HA, 4 weeks after ACLT and once a week for 5 weeks. The left knees received 0.3 ml of intraarticular injection with control solution (carrier solution). After 9 weeks from ACLT, the animas were sacrificed.
# Synovium (entire tissue) around the infrapatellar fat pads and cartilage tissue from the femoral condyle and the tibial plateau were harvested. The subsequent experimental procedure was the same as described in Test Example IV.
compound,measurement,setting,value
"C[C@]12CC[C@H](O)CC1=CC[C@@H]1[C@@H]2CC[C@]2(C)C(=O)CC[C@@H]12 [DHEA, dehyroepiandrosterone]","MMP-3 mRNA expression, decreased by","MMP-3 mRNA; 100 μM, after 24 hr of culture",73%
same,"inhibitory activity of DHEA on the MMP-3, increase by","MMP-3 mRNA; 100 μM, after 72 hr",131%
same,"MMP-3 production, inhibition","MMP-3 mRNA; 10-100 μM, 72 hours, not dose-dependent",82-93%
same,MMP-1 protein level (Western blot),MMP-1,reduced with increasing DHEA concentration
same,"(IL-1β)-induced expression of MMP-3 mRNA, inhibition",[1],73%
same,expression of type II collagen,type II collagen mRNA,increased

# — patent US20040038950A1, “Pharmaceutical composition for treating IL-1 related diseases or disorders” (priority 2002, published 2004)
